{
  "source": "paper PMC5306062",
  "about": "“Pharmacology and toxicology of the novel investigational agent Cantrixil (TRX-E-002-1)” (Cancer Chemotherapy and Pharmacology, 2016)",
  "key": {"[1]": {"system": "co-cultures which mimic tumour heterogeneity", "assay": "Co-culture studies with cisplatin", "assay_type": "cell-based, human", "excerpt": "Tumour recurrence post-chemotherapy is caused by the regrowth of the surviving innately drug-resistant cancer stem cells that remain in tumour niches during and post-chemotherapy. The expansion of this chemo-resistant cancer cell population, coupled with upregulation of pro-survival pathways due to drug pressure, is thought to be responsible for the development of chemo-resistant recurrent disease. Further, the inherent heterogeneity of ovarian tumours consists of epithelial cells with varying potential for stemness, and a population of cancer cells with varying mesenchymal status and invasiveness potential. Therefore, to improve survival, a practical approach is the use of novel therapies that can induce cell death in these various subtypes of ovarian cancer cells. TRX-E-002-1 was assessed against ovarian cancer stem cell line OCSC2, characterised by their expression of stem cell markers including CD44 and […] [22]. A major characteristic of these cells is that they are drug resistant, able to form self-renewing spheroids in non-adherent culture, and recreate disseminated drug-resistant ovarian tumours that have a high degree of heterogeneity similar to the clinical profile observed in patients when inoculated into the peritoneal cavity of an immune-compromised mouse."}, "[2]": {"system": "mouse lymphoma L5178Y cells", "assay": "In vitro mammalian cell mutation assay, thymidine kinase locus", "conditions": "3 h with and without S9, 24 h without S9", "experimental": "Genotoxicity testing of TRX-E-002-1 was performed in an ICH-compliant test battery (see ICH Guideline S2A), comprising an in vitro bacterial reverse mutation test, an in vitro mammalian cell mutation assay and an in vivo rodent bone marrow micronucleus assay. The assays were performed in compliance with GLP regulations.\nThe in vitro mammalian cell mutation assay utilised the forward mutation system at the thymidine kinase locus of the mouse lymphoma L5178Y cells using a microtitre cloning technique. TRX-E-002-1 was tested in three experimental conditions: 3-h incubation at 37 °C with and without metabolic activation system (Aroclor-induced rat liver S9 mix), and a 24-h incubation without metabolic activation (i.e. continuous treatment)."}, "PC3": {"system": "PC3", "assay": "Cytotoxic activity in human cancer cell lines (72 h growth inhibition)", "assay_type": "cell-based", "conditions": "PC-3, Prostate, 72 h incubation, mean ± SEM", "excerpt": "(§1) Activity in pancreatic and colorectal cancer cells and glioblastoma cells was more variable (Table 1)."}, "OVCAR-3": {"system": "OVCAR-3", "assay": "Cytotoxic activity in human cancer cell lines (72 h growth inhibition)", "assay_type": "cell-based", "conditions": "Ovarian, 72 h incubation, mean ± SEM", "excerpt": "as §1"}, "HT-29": {"system": "HT-29", "assay": "Cytotoxic activity in human cancer cell lines (72 h growth inhibition)", "assay_type": "cell-based", "conditions": "Colorectal, 72 h incubation, mean ± SEM", "excerpt": "as §1"}, "DU145": {"system": "DU145", "assay": "Cytotoxic activity in human cancer cell lines (72 h growth inhibition)", "assay_type": "cell-based", "conditions": "DU-145, Prostate, 72 h incubation, mean ± SEM", "excerpt": "as §1"}, "ASPC1": {"system": "ASPC1", "assay": "Cytotoxic activity in human cancer cell lines (72 h growth inhibition)", "assay_type": "cell-based", "conditions": "Pancreatic, 72 h incubation, mean ± SEM", "excerpt": "as §1"}, "JAM": {"system": "JAM", "assay": "Cytotoxic activity in human cancer cell lines (72 h growth inhibition)", "assay_type": "cell-based", "conditions": "Ovarian, 72 h incubation, mean ± SEM", "excerpt": "as §1"}, "A172": {"system": "A172", "assay": "Cytotoxic activity in human cancer cell lines (72 h growth inhibition)", "assay_type": "cell-based", "conditions": "A 172, Glioblastoma, 72 h incubation, mean ± SEM", "excerpt": "as §1"}, "[3]": {"system": "OCSC2 ovarian cancer stem cells", "assay": "Western blots of caspase 2 and signalling molecules in OCSC2 cells", "assay_type": "cell-based, human", "conditions": "Western blot", "experimental": "The role of caspases and intracellular signalling pathways in the anticancer activity of TRX-E-002-1 was investigated in OCSC2 ovarian cancer stem cells. […] TRX-E-002-1 also modulated phosphorylation of intracellular signalling molecules, with decreased levels of pERK (phosphorylated extracellular signal-regulated kinase) and increased levels of phosphorylated c-Jun (p–c-Jun). Activated p–c-Jun levels increased progressively over the 24-h incubation period in response to both concentrations of TRX-E-002-1 tested. […] Increased p–c-Jun and decreased pERK levels were observed following incubation of OCSC2 cells after only 2-h’ exposure, indicating these changes are one of the earliest effects of TRX-E-002-1 treatment."}, "[4]": {"system": "ovarian, prostate and lung cancer cells", "assay": "Broad cytotoxic activity", "assay_type": "cell-based", "conditions": "Homo sapiens, summary over ovarian", "excerpt": "as §1"}, "[5]": {"assay": "Rat GLP 28-day repeat-dose intraperitoneal toxicity study", "assay_type": "in vivo, SD rats", "conditions": "for half-life / Tmax / NOAEL at 28 days / Cmax: rat; for half-life / Tmax / Cmax: plasma, ip; for half-life: read-out: estimated plasma elimination half-life; for NOAEL at 28 days: in vivo", "experimental": "TRX-E-002-1 peak plasma concentrations were observed 0.25 – 0.5 h after dosing, except for mid-dose females on Day 1 (T max = 1 h). […] Mean plasma TRX-E-002-1 concentrations were roughly proportional to dose and were generally higher in males than in females. […] AUClast values on Day 28 tended to be higher than those on Day 1, except in low-dose males and high-dose females (Table 2), indicating slight accumulation of TRX-E-002-1 with daily dosing.\nNo deaths were observed during the study. […] At 10 mg/kg, reduced quantity of faeces was observed during the first 1 or 2 weeks in all animals. During the recovery period, faeces were normal, although anogenital staining persisted up to 4 days after cessation of dosing in one high-dose male.\nBody weight gain was reduced over Days 1–28 in high-dose males, and during the first treatment week in mid-dose males and high-dose females. Mean body weights at the end of the dosing period were 99.5, 95.7 and 89.2% of control values in males at 0.5, 3 and 10 mg/kg/day, respectively; corresponding values in females were 99.8, 97.8 and 97.8%, respectively.\nTreatment-related macroscopic abnormalities at the terminal necropsy were limited to distention of the caecum and/or colon in both sexes at 10 mg/kg/day, and obstruction of the colon in 3/10 males at this dose level. No macroscopic findings were present after the recovery period. […] Thymic weight was reduced in males at 3 and 10 mg/kg/day and was increased in females at 10 mg/kg/day. Testicular and epididymal weights were still reduced in the 10 mg/kg/day group after the recovery period.\nSimilar changes were also seen after the 14-day recovery period (significant in males only).\nIn summary, the major toxicity finding in rats dosed once daily for 28 days with TRX-E-002-1 was degeneration of seminiferous tubules in the testes and of sperm in the epididymides at the high dose of 10 mg/kg/day. Other findings including transient faecal changes, reductions in weight gain and food consumption, serum biochemical changes, macroscopic lesions in the large intestine and atrophy of the salivary glands were considered non-adverse. The NOAEL was considered to be 3 mg/kg/day in male rats and 10 mg/kg/day in females. The greater sensitivity of male rats compared with females would appear to be associated with higher cumulative systemic exposure over the 28-day repeat-dose period."}},
  "note": "Like-named read-outs stand apart in the source and are kept apart here.",
  "data": [
    {"smiles": "COc1cc([C@@H]2COc3c(ccc(O)c3C)[C@@H]2c2ccc(O)cc2)cc(OC)c1O", "note": "[TRX-E-002-1, (+) cis-4-(para-hydroxyphenyl)-7,4′-dihydroxy-3′,5′-dimethoxy-8-methylisoflavan]", "values": [
      {"measurement": "effect on effectiveness of cisplatin", "setting": "[1]", "result": "enhanced the effectiveness of cisplatin"},
      {"measurement": "mutant frequencies compared with control values", "setting": "[2]", "result": "did not show statistically significant differences"},
      {"measurement": "IC50", "setting": "PC3", "result": "0.096 ± 0.077", "unit": "µM"},
      {"measurement": "IC50", "setting": "OVCAR-3", "result": "0.023 ± 0.006", "unit": "µM"},
      {"measurement": "IC50", "setting": "HT-29", "result": "1.77 ± 1.39", "unit": "µM"},
      {"measurement": "IC50", "setting": "DU145", "result": "0.041 ± 0.014", "unit": "µM"},
      {"measurement": "IC50", "setting": "ASPC1", "result": "0.227 ± 0.055", "unit": "µM"},
      {"measurement": "IC50", "setting": "JAM", "result": "0.065 ± 0.002", "unit": "µM"},
      {"measurement": "IC50", "setting": "A172", "result": "0.051 ± 0.002", "unit": "µM"},
      {"measurement": "levels of inactive caspase 2", "setting": "[3]; both concentrations", "result": "decreased"},
      {"measurement": "levels of phosphorylated c-Jun (p–c-Jun)", "setting": "[3]; progressive over 24 h", "result": "increased"},
      {"measurement": "levels of pERK", "setting": "[3]; seen after 2 h exposure", "result": "decreased"},
      {"measurement": "IC50", "setting": "[4]", "result": "≤ 0.1", "unit": "µM"},
      {"measurement": "decreases in total protein, albumin and globulin", "setting": "[5]; 10 mg/kg/day, males and females, end of 28-day treatment", "result": "≤ 8", "unit": "%"},
      {"measurement": "deaths", "setting": "[5]; 0.5, 3 or 10 mg/kg/day up to 28 days", "result": "No deaths"},
      {"measurement": "half-life", "setting": "[5]; both sexes, Sprague-Dawley, Day 1, across sexes and doses", "result": "42 to 84", "unit": "min"},
      {"measurement": "half-life", "setting": "[5]; both sexes, Sprague-Dawley, Day 28", "result": "54 to 138", "unit": "min"},
      {"measurement": "Tmax", "setting": "[5]; both sexes, Sprague-Dawley, all groups except mid-dose females on Day 1, read-out: time of peak plasma concentrations", "result": "15 to 30", "unit": "min"},
      {"measurement": "NOAEL at 28 days", "setting": "[5]; female, SD", "result": 10, "unit": "mg/kg/day"},
      {"measurement": "Cmax", "setting": "[5]; female, SD, Day 1, 0.5 mg/kg, females", "result": 0.0334, "unit": "µg/mL"},
      {"measurement": "Cmax", "setting": "[5]; female, SD, Day 1, 3 mg/kg, females", "result": 0.15, "unit": "µg/mL"},
      {"measurement": "Tmax", "setting": "[5]; female, Sprague-Dawley, 3 mg/kg, mid-dose females, Day 1, read-out: T max", "result": 60, "unit": "min"},
      {"measurement": "Cmax", "setting": "[5]; female, Sprague-Dawley, Day 1, 10 mg/kg, females", "result": 0.535, "unit": "µg/mL"},
      {"measurement": "mean body weight at end of dosing period", "setting": "[5]; females, 0.5 mg/kg/day", "result": "99.8 % of control values"},
      {"measurement": "mean body weight at end of dosing period", "setting": "[5]; females, 3 mg/kg/day", "result": "97.8 % of control values"},
      {"measurement": "mean body weight at end of dosing period", "setting": "[5]; females, 10 mg/kg/day", "result": "97.8 % of control values"},
      {"measurement": "mean body weight after the 14-day recovery period", "setting": "[5]; high-dose males", "result": "93.6 % of control value"},
      {"measurement": "NOAEL at 28 days", "setting": "[5]; male, SD", "result": 3, "unit": "mg/kg/day"},
      {"measurement": "Cmax", "setting": "[5]; male, SD, Day 1, 3 mg/kg, males", "result": 0.181, "unit": "µg/mL"},
      {"measurement": "Cmax", "setting": "[5]; male, SD, Day 1, 10 mg/kg, males", "result": 0.78, "unit": "µg/mL"},
      {"measurement": "Cmax", "setting": "[5]; male, Sprague-Dawley, Day 1, 0.5 mg/kg, males", "result": 0.0354, "unit": "µg/mL"},
      {"measurement": "mean body weight at end of dosing period", "setting": "[5]; males, 0.5 mg/kg/day", "result": "99.5 % of control values"},
      {"measurement": "mean body weight at end of dosing period", "setting": "[5]; males, 3 mg/kg/day", "result": "95.7 % of control values"},
      {"measurement": "mean body weight at end of dosing period", "setting": "[5]; males, 10 mg/kg/day", "result": "89.2 % of control values"}
    ]}
  ]
}
